Reference: patent US20170042809A1, “STABLE LIPOSOMAL FORMULATIONS OF CARBONIC ANHYDRASE INHIBITORS FOR OCULAR DRUG DELIVERY” (Peregrine Ophthalmic PTE LTD., priority 2015, published 2017)
Where a name gives a salt, the structure may show the parent alone.

Experiments:
[1] = Stability of LipoDH and dorzolamide HCl aqueous solution on storage at 5° C.; type: physicochemical
Procedure: The LipoDH formulation was described above in EXAMPLE 2. A dorzolamide HCl aqueous solution was prepared by dissolving 200 mg dorzolamide HCl in 20 mL of PBS. The dorzolamide content of both formulations was analyzed after storing them at 5° C. for 7 and 14 days. The temperature was monitored and recorded continuously to ensure stable temperature conditions.

[2] = In-vitro drug release by dialysis against PBS pH 7.4, HPLC; type: physicochemical; conditions: within 48 hours, dialysis (MWCO 8-10 kDal) against PBS pH 7.4
Procedure: Drug release studies were performed by dialysing a dorzolamide HCl solution and LipoDH prepared as described above in EXAMPLE 2 and EXAMPLE 3, respectively, against PBS at a pH of 7.4 and measuring the amount of dorzolamide released by HPLC.
Briefly, 1 mL of dorzolamide HCl solution and 1 ml LipoDH were each loaded into a dialysis tube (molecular weight cut-off of 8-10 kDal) before placing the tube into 40 mL of PBS in a 50 mL tube. The PBS in the tubes was sampled at 1, 4, 7, 24, 48, 72 and 96 hours at which time the dorzolamide concentration was measured by HPLC.
The cumulative drug release percentage vs release time for both dorzolamide HCl solution (unencapsulated) and LipoDH (encapsulated) was calculated and plotted. […] Without a doubt, encapsulation of dorzolamide in a liposome results in a formulation capable of sustained drug delivery.

## CCN[C@H]1C[C@H](C)S(=O)(=O)c2sc(S(N)(=O)=O)cc21 [dorzolamide HCl]
[1]; at 7 days, storage at 5° C.
  degradation percentage: 57.9%
[1]; start of stability test
  degradation percentage, Start of Stability Test: 0.0%
  drug content, Start of Stability Test: 9.5 mg/mL
[1]; stored at 5° C. for 7 days
  degradation percentage, 7 Days Incubation: 57.9%
  drug content, 7 Days Incubation: 4.0 mg/mL
[1]; stored at 5° C. for 14 days
  degradation percentage, 14 Days Incubation: 58.9%
  drug content, 14 Days Incubation: 3.9 mg/mL
[2]
  cumulative drug release percentage: 80%
